Reference: patent publication US12077503B2, “Substituted cyclic amides and their use as herbicides” (FMC CORPORATION, priority 2015, dated 2024)

How the values were obtained:
Assay type in all cases: in vivo
[1] = tested on: waterhemp (common waterhemp, Amaranthus rudis); test: Test E preemergence; settings: scale 0 to 100
Excerpt: (§1) Seeds of plant species selected from corn (Zea mays), soybean (Glycine max), velvetleaf (Abutilon theophrasti), lambsquarters (Chenopodium album), poinsettia, wild (wild poinsettia, Euphorbia heterophylla), pigweed, palmer (palmer pigweed, Amaranthus palmeri), waterhemp (common waterhemp, Amaranthus rudis), surinam grass (Brachiaria decumbens), crabgrass, large (large crabgrass, Digitaria sangumnalis), crabgrass, Brazil (Brazilian crabgrass, Digitaria horizontalis), Panicum, fall (fall Panicum, Panicum dichotomiflorum), foxtail, giant (giant foxtail, Setaria faberii), foxtail, green (green foxtail, Setaria viridis), goosegrass (Eleusine indica), johnsongrass (Sorghum halepense), ragweed (common ragweed, Ambrosia elatior), barnyardgrass (Echinochloa crus-galli), sandbur (southern sandbur, Cenchrus echinatus), arrowleaf Sida (Sida rhombifolia), ryegrass, Italian (Italian ryegrass, Lolium multiflorum), dayflower, VA (Virginia dayflower, Commelina virginica), field bindweed (Convolvulus arvensis), morningglory (Ipomoea coccinea), nightshade (eastern black nightshade, Solanum ptycanthum), Kochia (Kochia scoparia), nutsedge, yellow (yellow nutsedge, Cyperus esculentus), horseweed (Conyza canadensis), and beggarticks (hairy beggarticks, Bidens pilosa), were planted into a silt loam soil and treated preemergence with test chemicals formulated in a non-phytotoxic solvent mixture which included a surfactant.
(§2) At the same time, plants selected from these crop and weed species were planted in pots containing Sunshine Redi-Earth planting medium comprising spaghnum peat moss, vermiculite, starter nutrients and dolomitic limestone and treated with postemergence applications of a test chemical formulated in the same manner. Plants ranged in height from 2 to 18 cm (1- to 4-leaf stage) for postemergence treatments. Treated plants and controls were maintained in a greenhouse for 14 to 21 d, after which time all species were compared to controls and visually evaluated. Plant response ratings, summarized in Table E, are based on a scale of 0 to 100 where 0 is no effect and 100 is complete control. A dash (-) response means no test result.

[2] = tested on: morningglory (Ipomoea coccinea); test: Test E preemergence; settings: scale 0 to 100
Excerpt: as §1, §2

[3] = tested on: poinsettia, wild (wild poinsettia, Euphorbia heterophylla); test: Test E preemergence; settings: scale 0 to 100
Excerpt: as §1, §2

[4] = tested on: barnyardgrass (Echinochloa crus-galli); test: Test E preemergence; settings: scale 0 to 100
Excerpt: as §1, §2

[5] = tested on: arrowleaf Sida (Sida rhombifolia); test: Test E preemergence; settings: scale 0 to 100
Excerpt: as §1, §2

[6] = tested on: nightshade (eastern black nightshade, Solanum ptycanthum); test: Test E preemergence; settings: scale 0 to 100
Excerpt: as §1, §2

[7] = tested on: field bindweed (Convolvulus arvensis); test: Test E preemergence; settings: scale 0 to 100
Excerpt: as §1, §2

[8] = tested on: johnsongrass (Sorghum halepense); test: Test E preemergence; settings: scale 0 to 100
Excerpt: as §1, §2

[9] = tested on: crabgrass, large (large crabgrass, Digitaria sangumnalis); test: Test E preemergence; settings: scale 0 to 100
Excerpt: as §1, §2

[10] = tested on: sandbur (southern sandbur, Cenchrus echinatus); test: Test E preemergence; settings: scale 0 to 100
Excerpt: as §1, §2

[11] = tested on: dayflower, VA (Virginia dayflower, Commelina virginica); test: Test E preemergence; settings: scale 0 to 100
Excerpt: as §1, §2

[12] = tested on: nutsedge, yellow (yellow nutsedge, Cyperus esculentus); test: Test E preemergence; settings: scale 0 to 100
Excerpt: as §1, §2

[13] = tested on: lambsquarters (Chenopodium album); test: Test E preemergence; settings: scale 0 to 100
Excerpt: as §1, §2

[14] = tested on: velvetleaf (Abutilon theophrasti); test: Test E preemergence; settings: scale 0 to 100
Excerpt: as §1, §2

[15] = tested on: barnyardgrass (Echinochloa crus-galli); test: Test G Pre-Emergence Protocol; settings: Echinochloa crus-galli, pre-emergence, 312 h, evaluated after 13 days; for pest or weed control at 15.625 g/ha: 15.625 g ai/ha, read-out: Barnyard grass damage rating (100=total damage to plant; 0=no damage to plant); for pest or weed control at 62.5 g/ha: 62.5 g ai/ha, 100=total damage to plant, 0=no damage to plant, read-out: plant damage rating, Barnyardgrass; for pest or weed control at 250 g/ha: 250 g ai/ha, read-out: Barnyardgrass damage rating (100=total damage to plant; 0=no damage to plant)
Method: (§3) Seeds of corn (Zea mays), giant foxtail (Setaria faberi), barnyardgrass (Echinochloa crus-galli), ivy-leaved morning glory (Ipomoea hederacea), redroot pigweed (Amaranthus retroflexus) and velvetleaf (Abutilon theophrasti) were sown in standard soil in pots. After cultivation for one day under controlled conditions in a glasshouse (at 24/16° C., day/night; 14 hours light; 65% humidity), the plants were sprayed with an aqueous spray solution derived from the formulation of the technical active ingredient in acetone/water (50:50) solution containing 0.5% Tween 20 (polyoxyethylene sorbitan monolaurate, CAS RN 9005-64-5) to give a final dose of 15.625, 62.5 or 250 g/ha of test compound.
(§4) The test plants were then grown on under controlled conditions in a glasshouse (at 24/16° C., day/night; 14 hours light; 65% humidity) and watered twice daily. After 13 days the test was evaluated (100=total damage to plant; 0=no damage to plant). A dash (-) means no test result.

[16] = tested on: velvetleaf (Abutilon theophrasti); test: Test G Pre-Emergence Protocol; settings: Abutilon theophrasti, pre-emergence, 312 h, evaluated after 13 days; for pest or weed control at 15.625 g/ha: 15.625 g ai/ha; for pest or weed control at 15.625 g/ha / pest or weed control at 250 g/ha: read-out: Velvetleaf damage rating (100=total damage to plant; 0=no damage to plant); for pest or weed control at 62.5 g/ha: 62.5 g ai/ha, 100=total damage to plant, 0=no damage to plant, read-out: plant damage rating, Velvetleaf; for pest or weed control at 250 g/ha: 250 g ai/ha
Method: as §3, §4

CN1CC(c2cccc(OC(F)(F)C(F)F)c2)C(C(=O)Nc2cccc(F)c2F)C1=O (centres unmarked) [Compound 392]
Plant response rating: Waterhemp ([1]; 31 g ai/ha): 35 | Plant response rating: Waterhemp ([1]; 62 g ai/ha): 80 | Plant response rating: Waterhemp ([1]; 125 g ai/ha): 70 | Plant response rating: Waterhemp ([1]; 250 g ai/ha): 90 | Plant response rating: Morningglory ([2]; 31 g ai/ha): 0 | Plant response rating: Morningglory ([2]; 62 g ai/ha): 0 | Plant response rating: Morningglory ([2]; 125 g ai/ha): 0 | Plant response rating: Morningglory ([2]; 250 g ai/ha): 0 | Plant response rating: Poinsettia, Wild ([3]; 31 g ai/ha): 0 | Plant response rating: Poinsettia, Wild ([3]; 62 g ai/ha): 0 | Plant response rating: Poinsettia, Wild ([3]; 125 g ai/ha): 35 | Plant response rating: Poinsettia, Wild ([3]; 250 g ai/ha): 20 | Plant response rating: Barnyardgrass ([4]; 31 g ai/ha): 85 | Plant response rating: Barnyardgrass ([4]; 62 g ai/ha): 70 | Plant response rating: Barnyardgrass ([4]; 125 g ai/ha): 90 | Plant response rating: Barnyardgrass ([4]; 250 g ai/ha): 95 | Plant response rating: Arrowleaf Sida ([5]; 31 g ai/ha): 0 | Plant response rating: Arrowleaf Sida ([5]; 62 g ai/ha): 15 | Plant response rating: Arrowleaf Sida ([5]; 125 g ai/ha): 65 | Plant response rating: Arrowleaf Sida ([5]; 250 g ai/ha): 80 | Plant response rating: Nightshade ([6]; 31 g ai/ha): 20 | Plant response rating: Nightshade ([6]; 62 g ai/ha): 80 | Plant response rating: Nightshade ([6]; 125 g ai/ha): 90 | Plant response rating: Nightshade ([6]; 250 g ai/ha): 90 | Plant response rating: Field Bindweed ([7]; 31 g ai/ha): 0 | Plant response rating: Field Bindweed ([7]; 62 g ai/ha): 0 | Plant response rating: Field Bindweed ([7]; 125 g ai/ha): 35 | Plant response rating: Field Bindweed ([7]; 250 g ai/ha): 70 | Plant response rating: Johnsongrass ([8]; 31 g ai/ha): 25 | Plant response rating: Johnsongrass ([8]; 62 g ai/ha): 30 | Plant response rating: Johnsongrass ([8]; 125 g ai/ha): 50 | Plant response rating: Johnsongrass ([8]; 250 g ai/ha): 95 | Plant response rating: Crabgrass, Large ([9]; 31 g ai/ha): 90 | Plant response rating: Crabgrass, Large ([9]; 62 g ai/ha): 95 | Plant response rating: Crabgrass, Large ([9]; 125 g ai/ha): 98 | Plant response rating: Crabgrass, Large ([9]; 250 g ai/ha): 98 | Plant response rating: Sandbur ([10]; 31 g ai/ha): 0 | Plant response rating: Sandbur ([10]; 62 g ai/ha): 60 | Plant response rating: Sandbur ([10]; 125 g ai/ha): 60 | Plant response rating: Sandbur ([10]; 250 g ai/ha): 90 | Plant response rating: Dayflower, VA ([11]; 31 g ai/ha): 0 | Plant response rating: Dayflower, VA ([11]; 62 g ai/ha): 0 | Plant response rating: Dayflower, VA ([11]; 125 g ai/ha): 0 | Plant response rating: Dayflower, VA ([11]; 250 g ai/ha): 35 | Plant response rating: Nutsedge, Yellow ([12]; 31 g ai/ha): 0 | Plant response rating: Nutsedge, Yellow ([12]; 62 g ai/ha): 0 | Plant response rating: Nutsedge, Yellow ([12]; 125 g ai/ha): 0 | Plant response rating: Nutsedge, Yellow ([12]; 250 g ai/ha): 0 | Plant response rating: Lambsquarters ([13]; 31 g ai/ha): 75 | Plant response rating: Lambsquarters ([13]; 62 g ai/ha): 75 | Plant response rating: Lambsquarters ([13]; 125 g ai/ha): 98 | Plant response rating: Lambsquarters ([13]; 250 g ai/ha): 100 | Plant response rating: Velvetleaf ([14]; 31 g ai/ha): 0 | Plant response rating: Velvetleaf ([14]; 62 g ai/ha): 20 | Plant response rating: Velvetleaf ([14]; 125 g ai/ha): 50 | Plant response rating: Velvetleaf ([14]; 250 g ai/ha): 75

CN1C[C@H](c2ccc(C(F)(F)F)cc2)[C@@H](C(=O)Nc2cccnc2F)C1=O [Compound 1396]
pest or weed control at 15.625 g/ha [15]: 80% | pest or weed control at 62.5 g/ha [15]: 90% | pest or weed control at 250 g/ha [15]: 90% | pest or weed control at 15.625 g/ha [16]: 40% | pest or weed control at 62.5 g/ha [16]: 70% | pest or weed control at 250 g/ha [16]: 80%

CN1C[C@H](c2ccc(Cl)cc2)[C@@H](C(=O)Nc2cccc(F)n2)C1=O [Compound 1399]
pest or weed control at 15.625 g/ha [15]: 0% | pest or weed control at 62.5 g/ha [15]: 90% | pest or weed control at 250 g/ha [15]: 90% | pest or weed control at 15.625 g/ha [16]: 0% | pest or weed control at 62.5 g/ha [16]: 40% | pest or weed control at 250 g/ha [16]: 70%
